Assay: recombinant barcode read abundance after kanamycin selection (control-corrected) (log10(CPM+1)); higher = more efficient recombination; sequences stand for … in AGTGCAGAGAAAATCGGCCAGTTTTCTCTGCCTGCAGTCCGCATGCCGT…AGATTTATGCAGCGGACTGCCTTTCTCCCAAAGTGATAAACCGGACAGTATCATGGACCGGTTTTCCCGGTAATCCGTATTTGCAAGGTTGGTTTCACT; site = the 11-nt target
Summary of the method: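 In E. coli, a pooled library matched targets to IS621 bridge RNA target-binding loops and was introduced alongside a donor plasmid. Cells went onto chloramphenicol/ampicillin/kanamycin with 0.1 mM IPTG or onto chloramphenicol/ampicillin LB agar as control, in duplicate. Recombination efficiency, from recombinant-junction barcodes as counts per million, is averaged and control-corrected. It is reported as log10(CPM+1).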
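Further: IS621 recombinase and bridge RNA in Escherichia coli cells.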

Row | Sequence | recombinant barcode read abundance (log10)
1 | CTCTGAGCTTGGGTTCTAACCTGTTGCAG (site CTCTGAGCTCT) | 0.538
2 | CTCTGCTCTTGGGTTCTAACCTGTTGCTT (site CACTCCTCTAA) | 0.0518
3 | CTCTGCTCTTGGGTTCTAACCTGTTGCTT (site CTCTGCTCTAA) | 0.245
4 | CTCTGTCCTTGGGTTCTAACCTGTTGCTG (site CTCTGTCCTCA) | 0.374
5 | CTCTGTCCTTGGGTTCTAACCTGTTGCTG (site GCTGAGACTAC) | 0.0997
6 | CTCTTCCCTTGGGTTCTAACCTGTTGCTT (site CTATTCCCTCA) | 0.155
7 | CTCTTCCCTTGGGTTCTAACCTGTTGCTT (site CTCTTCCCTAA) | 0.594
8 | CTCTTGTCTTGGGTTCTAACCTGTTGCTG (site CTCGTGTCTCT) | 0.0114
9 | CTCTTGTCTTGGGTTCTAACCTGTTGCTG (site CTCTTGTCTCA) | 1.01
10 | CTGAGAGCTTGGGTTCTAACCTGTTGCCT (site CAGAGAGCTAG) | 0.319
11 | CTGAGAGCTTGGGTTCTAACCTGTTGCCT (site CCGAGAGCTAG) | 0.058
12 | CTGAGAGCTTGGGTTCTAACCTGTTGCCT (site CGGAGAGCTAG) | 0.156
13 | CTGAGAGCTTGGGTTCTAACCTGTTGCCT (site CTGAGAGCTAG) | 1.61
14 | CTGAGCCCTTGGGTTCTAACCTGTTGCAT (site CGGAGCCCTCT) | 0.0964
15 | CTGAGCCCTTGGGTTCTAACCTGTTGCAT (site CTGAGCCCTAT) | 1.09
16 | CTGAGGACTTGGGTTCTAACCTGTTGCCT (site ATGAGGACTAG) | 0.0813
17 | CTGAGGACTTGGGTTCTAACCTGTTGCCT (site CTGAGGACTAG) | 1.29
18 | CTGAGGACTTGGGTTCTAACCTGTTGCCT (site GTGAGGACTAG) | 0.0454
19 | CTGAGGACTTGGGTTCTAACCTGTTGCCT (site TTGAGGACTAG) | 0.325
20 | CTGATCACTTGGGTTCTAACCTGTTGCCT (site CTGATAACTAG) | 0.0217
21 | CTGATCACTTGGGTTCTAACCTGTTGCCT (site CTGATCACTAG) | 1.03
22 | CTGATCACTTGGGTTCTAACCTGTTGCCT (site CTGATGACTAG) | 0.0708

Row | Sequence | recombinant barcode read abundance (log10)
23 | CTGATCACTTGGGTTCTAACCTGTTGCCT (site CTGATTACTAG) | 0.202
24 | CTGCACCCTTGGGTTCTAACCTGTTGCAG (site CTGCACCCTCT) | 0.477
25 | CTGCACCCTTGGGTTCTAACCTGTTGCAG (site GCGCACCCTCT) | 0.0743
26 | CTGCATACTTGGGTTCTAACCTGTTGCCT (site CAGCATACTAG) | 0.17
27 | CTGCATACTTGGGTTCTAACCTGTTGCCT (site CCGCATACTAG) | 0.217
28 | CTGCATACTTGGGTTCTAACCTGTTGCCT (site CGGCATACTAG) | 0.0131
29 | CTGCATACTTGGGTTCTAACCTGTTGCCT (site CTGCATACTAG) | 0.86
30 | CTGCGCCCTTGGGTTCTAACCTGTTGCCT (site CTGAGCCCTAG) | 0.0517
31 | CTGCGCCCTTGGGTTCTAACCTGTTGCCT (site CTGCGCCCTAG) | 1.1
32 | CTGCGCCCTTGGGTTCTAACCTGTTGCCT (site CTGGGCCCTAG) | 0.249
33 | CTGCGCCCTTGGGTTCTAACCTGTTGCCT (site CTGTGCCCTAG) | 0.567
34 | CTGCGTGCTTGGGTTCTAACCTGTTGCCT (site CAGCGTGCTAG) | 0.503
35 | CTGCGTGCTTGGGTTCTAACCTGTTGCCT (site CCGCGTGCTAG) | 0.909
36 | CTGCGTGCTTGGGTTCTAACCTGTTGCCT (site CGGCGTGCTAG) | 0.176
37 | CTGCGTGCTTGGGTTCTAACCTGTTGCCT (site CTGCGTGCTAG) | 0.83
38 | CTGCTACCTTGGGTTCTAACCTGTTGCCT (site CAGCTACCTAG) | 0.706
39 | CTGCTACCTTGGGTTCTAACCTGTTGCCT (site CCGCTACCTAG) | 0.386
40 | CTGCTACCTTGGGTTCTAACCTGTTGCCT (site CGGCTACCTAG) | 0.0908
41 | CTGCTACCTTGGGTTCTAACCTGTTGCCT (site CTGCTACCTAG) | 1.13
42 | CTGCTAGCTTGGGTTCTAACCTGTTGCAG (site CTGCTAGCTCT) | 1.08
43 | CTGCTAGCTTGGGTTCTAACCTGTTGCAG (site GACAGGCCTAC) | 0.289

From the supplement of paper PMC11208160
